These results are taken from patent US20040077674A1, “Mappicine analogs, intermediates in the synthesis of mappicine analogs and methods of synthesis of mappicine analogs” (priority 2002, published 2004).

In assay [1] the target is T1, RNase H activity of HIV reverse transcriptase (Human immunodeficiency virus type 1 group M subtype B, UniProt P03366).
T1 construct: 2.5 nM of the p51/p66 RT heterodimer in the assay; made in house
Kind of assay: Fluorescence (FRET)-based RNase H assay of HIV reverse transcriptase. Format: biochemical, HIV-1. Conditions: 10 μM inhibitor concentration, activity in presence / in absence of analog x 100. Here is the method: Recently, a fluorescence-based assay to perform screens in search of HIV RNase H inhibitors has been developed. The assay, which is carried out in 96-well microplates and is adaptable to robotics, is the first high-throughput screen for RNase H and is described in further detail in the Experimental section. HIV-1 RT and human RNase H were cloned, and thus comparative analysis of inhibitor action could be conducted simultaneously.
The assay for RNase H activity of HIV reverse transcriptase was the fluorescence-based assay described in detail in the Experimental section and discussed in U.S. Provisional Patent Application Serial No. 60/318,359. Assays were carried out in the absence and in the presence of mappicine analogs (10 μM or 20 μM final concentration). The results are reported as % residual activity, which is the RNase H activity of the enzyme in the presence of the mappicine analog divided by the RNase H activity of the enzyme in the absence of the mappicine analog, multiplied by 100. Alternatively, the results are reported as % inhibition, which is calculated as the ratio of the RNase H activity of the enzyme in the presence of the mappicine analog to the enzyme activity in the absence of the mappicine analog, multiplied by 100, and then subtracting this number from 100.
Assay for Ribonuclease H Activity Based on Fluorescence Resonance Energy Transfer (FRET)
Preparation of the Fluorophore-RNA/Quencher-DNA Hybrid Duplex Substrate.
The RNA/DNA hybrid duplex substrate for use in the assay comprises an RNA oligonucleotide of sequence 5′-GAU CUG AGC CUG GGA GCU-3′, modified at the 3′-end with Aminolink-2 and derivatized with fluorescein isothiocyanate, to provide a modified RNA oligonucleotide of the sequence 5′-GAU CUG AGC CUG GGA GCU-fluorescein-3′, annealed to a complementary DNA oligonucleotide of the sequence 5′-AGC TCC CAG GCT CAG ATC-3′ modified at the 5′-end with Aminolink-2 and derivatized with the FRET acceptor DABCYL succinimidyl ester, to provide a modified DNA oligonucleotide of the sequence 5′-DABCYL-AGC TCC CAG GCT CAG ATC-3′.
To prepare the 3′-fluorescein-RNA/5′-DABCYL-DNA hybrid duplex substrate, a known amount of 3′-fluorescein-RNA was dissolved in 20 mM Tris buffer (pH 8.0, 37° C.) to provide a final concentration of 5 μM. Two equivalents of the 5′-DABCYL-DNA oligonucleotide were added, and the mixture was heated to 90° C. for 5 min and cooled slowly to room temperature to allow duplex formation. The positioning of the fluorescein donor at the 3′-end of the RNA oligonucleotide and the DABCYL acceptor at the 5′-end of the DNA oligonucleotide provides a very close proximity of the donor and acceptor that results in a very intense quenching of the fluorescein emission in the intact RNA/DNA hybrid duplex substrate due to the spectral overlap of the fluorescence emission of fluorescein with the absorption spectrum of DABCYL. In addition, DABCYL is non-fluorescent, and thus cannot contribute any light emission. Both of these factors result in a very low background and provide a high signal-to-noise in the assay measurements. The ratio of the donor fluorescence in the absence and in the presence of its quencher is approximately fifteen-fold.
Microplate Assay Protocol for the Measurement of RNase H Activity Using the RNA/IDNA Hybrid Duplex Substrate.
Reaction assay mixtures contained 5 μl of a stock solution of 2.5 μM RNA/DNA hybrid duplex substrate added to 85 μl of assay buffer (50 mM Tris, pH 8.0, 37° C., containing 60 mM KCl and 2.5 mM MgCl2), prepared in the wells of a 96-well fluorescence microtiter plate, and warmed to 37° C. using the temperature control of the SpectraMax Gemini XS microplate spectrofluorometer (Molecular Devices). Reactions were started by the addition of 5 μl of a solution of recombinant HIV-1 reverse transcriptase (usually providing a final concentration of 2.5 nM of the p51/p66 RT heterodimer in the assay), and mixing using the automatic mixing function of the microplate spectrofluorometer. […]

Assay [2] deals with T2, RNA-dependent DNA polymerase activity of HIV reverse transcriptase (Human immunodeficiency virus type 1 group M subtype B, UniProt P03366).
T2 construct: made in house
Description: RNA-dependent DNA polymerase activity assay of HIV reverse transcriptase. As to conditions: 10 μM inhibitor concentration, activity in presence / in absence of analog x 100. The format is biochemical, HIV-1. The method, then:
In separate representative assays, mappicine analogs were tested for their ability to inhibit the RNA-dependent DNA polymerase activity of HIV reverse transcriptase and for their ability to inhibit the RNase H activity of HIV reverse transcriptase. The assay for RNA-dependent DNA polymerase activity is discussed in Borkow, G. et al., “Inhibition of the Ribonuclease H and DNA Polymerase Activities of HIV-1 Reverse Transcriptase by N-(4-tert-Butylbenzoyl)-2-hydroxy-1-naphthaldehyde Hydrazone,” Biochemistry 1997, 36, 3179-3185, a copy of which is attached hereto and the disclosure of which is incorporated herein by reference. Assays were carried out in the absence and in the presence of mappicine analogs (10 μM final concentration). The results are reported as % residual activity, which is the RNA-dependent DNA polymerase activity of the enzyme in the presence of the mappicine analog divided by the RNA-dependent activity of the enzyme in the absence of the mappicine analog, multiplied by 100.

With `CCCCCCc1c2c(nc3ccccc13)-c1cc(C(O)CCC3CCCCC3)c(C)c(=O)n1C2` (stereo not drawn) [5 (8Aδ)], the “Residual activity (%) RNase H” value in assay [1] was 89%. The “Residual activity (%) Polymerase” value in assay [2] is recorded as 72%.

Consider `COc1ccc2nc3c(c(-c4ccccc4)c2c1)Cn1c-3cc(C(O)CCC2CCCCC2)c(C)c1=O` (stereo not drawn) [5 (3Dδ)], for which, in assay [1], the “Residual activity (%) RNase H” value is recorded as 67%. In assay [2], the “Residual activity (%) Polymerase” value came to 60%.

Regarding `Cc1ccc2nc3c(c([Si](C)(C)C)c2c1)Cn1c-3cc(C(O)C(C)(C)C)c(C)c1=O` (stereo not drawn) [5 (5Cβ)], in assay [1], the “Residual activity (%) RNase H” value is on record as 80%. Further, the “Residual activity (%) Polymerase” value in assay [2] was determined as 72%.

For `CCC(O)c1cc2n(c(=O)c1C)Cc1c-2nc2ccccc2c1-c1ccccc1` (stereo not drawn) [5 (3Aα)], in assay [1], the “Residual activity (%) RNase H” value is on record as 97%. Moreover, the “Residual activity (%) Polymerase” value in assay [2] is 90%.

`Cc1c(C(=O)CCC2CCCCC2)cc2n(c1=O)Cc1c-2nc2ccccc2c1[Si](C)(C)C(C)(C)C` [5 (4Aδκ)]: the “Residual activity (%) RNase H” value in assay [1] came out at 102%. The “Residual activity (%) Polymerase” value in assay [2] turned out to be 39%.

Turning to `CCC(=O)c1cc2n(c(=O)c1C)Cc1c-2nc2ccc(OC)cc2c1[Si](C)(C)C` [5 (5Dακ)], the “Residual activity (%) RNase H” value in assay [1] is on record as 86%. Besides, the “Residual activity (%) Polymerase” value in assay [2] is recorded as 50%.

Consider `CCC(=O)c1cc2n(c(=O)c1C)Cc1c-2nc2ccc(C)cc2c1-c1ccccc1` [5 (3Cακ)], for which the “Residual activity (%) RNase H” value in assay [1] came out at 99%. Further, the “Residual activity (%) Polymerase” value in assay [2] is listed as 71%.

For the compound `CCCCCCc1c2c(nc3ccc(OC)cc13)-c1cc(C(O)CC)c(C)c(=O)n1C2` (stereo not drawn) [5 (8Dα)], the “Residual activity (%) RNase H” value in assay [1] is on record as 66%. In assay [2], the “Residual activity (%) Polymerase” value was 85%.

As for `Cc1ccc2nc3c(c([Si](C)(C)C(C)(C)C)c2c1)Cn1c-3cc(C(O)C(C)(C)C)c(C)c1=O` (stereo not drawn) [5 (4Cβ)], in assay [1], the “Residual activity (%) RNase H” value is given as 94%. Also, in assay [2], the “Residual activity (%) Polymerase” value came to 67%.

As to `Cc1ccc2nc3c(c([Si](C)(C)C)c2c1)Cn1c-3cc(C(O)Cc2ccccc2)c(C)c1=O` (stereo not drawn) [5 (5Cε)], in assay [1], the “Residual activity (%) RNase H” value is given as 93%. For the same compound, the “Residual activity (%) Polymerase” value in assay [2] was found to be 87%.

Take `Cc1c(C(O)Cc2ccccc2)cc2n(c1=O)Cc1c-2nc2ccc(F)cc2c1[Si](C)(C)C` (stereo not drawn) [5 (5Bε)]: the “Residual activity (%) RNase H” value in assay [1] came out at 88%. Further, in assay [2], the “Residual activity (%) Polymerase” value stood at 49%.

Turning to `Cc1ccc2nc3c(c(-c4ccccc4)c2c1)Cn1c-3cc(C(O)Cc2ccccc2)c(C)c1=O` (stereo not drawn) [5 (3Cε)], in assay [1], the “Residual activity (%) RNase H” value was found to be 101%. The “Residual activity (%) Polymerase” value in assay [2] stood at 76%.

In the case of `Cc1c(C(O)Cc2ccccc2)cc2n(c1=O)Cc1c-2nc2ccccc2c1[Si](C)(C)C` (stereo not drawn) [5 (5Aε)], in assay [1], the “Residual activity (%) RNase H” value came to 93%. The “Residual activity (%) Polymerase” value in assay [2] is reported as 54%.

For `CCC(=O)c1cc2n(c(=O)c1C)Cc1c-2nc2ccccc2c1-c1ccccc1` [5 (3Aακ)], in assay [1], the “Residual activity (%) RNase H” value is 87%. The “Residual activity (%) Polymerase” value in assay [2] was determined as 64%.

Take `CCC(=O)c1cc2n(c(=O)c1C)Cc1c-2nc2ccc(F)cc2c1[Si](C)(C)C(C)(C)C` [5 (4Bακ)]: the “Residual activity (%) RNase H” value in assay [1] was 77%. The “Residual activity (%) Polymerase” value in assay [2] is given as 42%.

For `CCC(O)c1cc2n(c(=O)c1C)Cc1c-2nc2ccc(C)cc2c1[Si](C)(C)C` (stereo not drawn) [5 (5Cα)], the “Residual activity (%) RNase H” value in assay [1] is 62%. The “Residual activity (%) Polymerase” value in assay [2] came out at 68%.

For the compound `COc1ccc2nc3c(c([Si](C)(C)C(C)(C)C)c2c1)Cn1c-3cc(C(O)C(C)(C)C)c(C)c1=O` (stereo not drawn) [5 (4Dβ)], the “Residual activity (%) RNase H” value in assay [1] came to 91%. In assay [2], the “Residual activity (%) Polymerase” value was 47%.

With `Cc1c(C(=O)CCC2CCCCC2)cc2n(c1=O)Cc1c-2nc2ccccc2c1[Si](C)(C)C` [5 (5Aδκ)], in assay [1], the “Residual activity (%) RNase H” value worked out at 75%. Also, the “Residual activity (%) Polymerase” value in assay [2] is listed as 90%.

Take `Cc1c(C(O)Cc2ccccc2)cc2n(c1=O)Cc1c-2nc2ccccc2c1[Si](C)(C)C(C)(C)C` (stereo not drawn) [5 (4Aε)]: the “Residual activity (%) RNase H” value in assay [1] was found to be 93%. In assay [2], the “Residual activity (%) Polymerase” value turned out to be 83%.

As to `CCC(=O)c1cc2n(c(=O)c1C)Cc1c-2nc2ccc(C)cc2c1[Si](C)(C)C(C)(C)C` [5 (4Cακ)], the “Residual activity (%) RNase H” value in assay [1] is listed as 90%. Besides, the “Residual activity (%) Polymerase” value in assay [2] came to 52%.

Consider `CCC(O)c1cc2n(c(=O)c1C)Cc1c-2nc2ccc(N)cc2c1[Si](C)(C)C` (stereo not drawn) [5 (AG 3M), 2-Amino-7-(1-hydroxypropyl)-8-methyl-12-trimethylsilanyl-1 1H-indolizino[1,2-b]quinolin-9-one], for which the remaining activity at 10 µM in assay [1] (read-out: Residual activity (%) RNase H) amounted to 63%; in assay [2] (read-out: Residual activity (%) Polymerase), 123%.

With `CCCCCCc1c2c(nc3ccc(OC)cc13)-c1cc(C(=O)CCC3CCCCC3)c(C)c(=O)n1C2` [5 (8Dδκ)], the “Residual activity (%) RNase H” value in assay [1] is listed as 90%. Further, the “Residual activity (%) Polymerase” value in assay [2] came out at 65%.

For `COc1ccc2nc3c(c(-c4ccccc4)c2c1)Cn1c-3cc(C(O)Cc2ccccc2)c(C)c1=O` (stereo not drawn) [5 (3Dε)], the “Residual activity (%) RNase H” value in assay [1] was 79%. Also, the “Residual activity (%) Polymerase” value in assay [2] is reported as 61%.

Turning to `Cc1c(C(O)CCC2CCCCC2)cc2n(c1=O)Cc1c-2nc2ccccc2c1[Si](C)(C)C` (stereo not drawn) [5 (5Aδ)], the “Residual activity (%) RNase H” value in assay [1] is listed as 78%. Moreover, the “Residual activity (%) Polymerase” value in assay [2] turned out to be 83%.

In the case of `Cc1c(C(=O)C(C)(C)C)cc2n(c1=O)Cc1c-2nc2ccccc2c1-c1ccccc1` [5 (3Aβκ)], in assay [1], the “Residual activity (%) RNase H” value was 94%. In addition, the “Residual activity (%) Polymerase” value in assay [2] amounted to 64%.

Regarding `Cc1c(C(=O)C(C)(C)C)cc2n(c1=O)Cc1c-2nc2ccccc2c1[Si](C)(C)C` [5 (5Aβκ)], the “Residual activity (%) RNase H” value in assay [1] is 97%. Also, the “Residual activity (%) Polymerase” value in assay [2] came out at 47%.

As for `CCCCCCc1c2c(nc3ccc(OC)cc13)-c1cc(C(O)Cc3ccccc3)c(C)c(=O)n1C2` (stereo not drawn) [5 (8Dε)], the “Residual activity (%) RNase H” value in assay [1] was 82%. Further, the “Residual activity (%) Polymerase” value in assay [2] is 73%.

In the case of `CCCCCCc1c2c(nc3ccc(OC)cc13)-c1cc(C(=O)CC)c(C)c(=O)n1C2` [5 (8Dακ)], the “Residual activity (%) RNase H” value in assay [1] is 84%. Further, the “Residual activity (%) Polymerase” value in assay [2] was 51%.

For the compound `Cc1c(C(O)CCC2CCCCC2)cc2n(c1=O)Cc1c-2nc2ccccc2c1[Si](C)(C)C(C)(C)C` (stereo not drawn) [5 (4Aδ)], the “Residual activity (%) RNase H” value in assay [1] is reported as 95%. Also, the “Residual activity (%) Polymerase” value in assay [2] came to 45%.

With `COc1ccc2nc3c(c([Si](C)(C)C(C)(C)C)c2c1)Cn1c-3cc(C(O)Cc2ccccc2)c(C)c1=O` (stereo not drawn) [5 (4Dε)], the “Residual activity (%) RNase H” value in assay [1] was 76%. For the same compound, in assay [2], the “Residual activity (%) Polymerase” value is listed as 49%.
